Test results taken from ChEMBL document CHEMBL1147649, “Design and synthesis of potent beta-secretase (BACE1) inhibitors with P1' carboxylic acid bioisosteres” (Bioorg Med Chem Lett, 2006).

How the values were obtained:
Beta-secretase 1 [1] = biological target: T1, Beta-secretase 1 (Homo sapiens, UniProt P56817); assay: Inhibition of BACE1 at 2 uM
Beta-secretase 1 [2] = biological target: T1, Beta-secretase 1; assay: Inhibition of BACE1 at 0.2 uM
Beta-secretase 1 [3] = biological target: T1, Beta-secretase 1; assay: Inhibition of BACE1

T1 sequence (P56817 whole entry): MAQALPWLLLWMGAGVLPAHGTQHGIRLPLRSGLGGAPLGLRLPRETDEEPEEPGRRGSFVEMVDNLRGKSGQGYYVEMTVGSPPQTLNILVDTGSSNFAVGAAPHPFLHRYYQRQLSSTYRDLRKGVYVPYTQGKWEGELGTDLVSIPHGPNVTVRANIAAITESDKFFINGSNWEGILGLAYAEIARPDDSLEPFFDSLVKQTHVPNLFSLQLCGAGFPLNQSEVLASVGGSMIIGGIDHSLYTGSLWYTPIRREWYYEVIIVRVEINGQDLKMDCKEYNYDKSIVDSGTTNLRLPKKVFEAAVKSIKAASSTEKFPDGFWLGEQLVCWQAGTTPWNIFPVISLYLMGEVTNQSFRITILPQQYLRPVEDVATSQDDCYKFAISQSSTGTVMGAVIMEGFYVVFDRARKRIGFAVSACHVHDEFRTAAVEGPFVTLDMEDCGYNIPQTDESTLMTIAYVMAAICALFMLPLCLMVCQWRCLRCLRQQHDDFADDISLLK

inhibition (Beta-secretase 1 [1]) [%] | inhibition (Beta-secretase 1 [2]) [%] | IC50 (Beta-secretase 1 [3]) [nM] | SMILES
100 | 94.2 | 6.6 | CC(C)C[C@H](NC(=O)[C@@H](NC(=O)[C@@H](N)CNC(=O)c1nn[nH]n1)C(C)C)C(=O)N[C@@H](Cc1ccccc1)[C@@H](O)C(=O)Nc1cccc(-c2noc(O)n2)c1
 |  | 6.4 | CC(C)C[C@H](NC(=O)[C@@H](NC(=O)[C@@H](N)CNC(=O)c1nnn[nH]1)C(C)C)C(=O)N[C@@H](Cc1ccccc1)[C@@H](O)C(=O)Nc1cccc(-c2nc(=S)o[nH]2)c1
74.2 |  |  | CC(C)C[C@H](NC(=O)[C@@H](NC(=O)[C@@H](N)CCC(=O)O)C(C)C)C(=O)N[C@@H](Cc1ccccc1)[C@@H](O)C(=O)Nc1cccc(-c2n[nH]c(=S)n2C)c1
92 | 72.3 |  | CC(C)C[C@H](NC(=O)[C@@H](NC(=O)[C@@H](N)CCC(=O)O)C(C)C)C(=O)N[C@@H](Cc1ccccc1)[C@@H](O)C(=O)Nc1cccc(-c2n[nH]c(=S)o2)c1
99.7 | 94 | 6.4 | CC(C)C[C@H](NC(=O)[C@@H](NC(=O)[C@@H](N)CCC(=O)O)C(C)C)C(=O)N[C@@H](Cc1ccccc1)[C@@H](O)C(=O)Nc1cc(-c2nn[nH]n2)cc(-c2nn[nH]n2)c1
99.8 | 97.2 |  | CC(C)C[C@H](NC(=O)[C@@H](NC(=O)[C@@H](N)CNC(=O)c1nn[nH]n1)C(C)C)C(=O)N[C@@H](Cc1ccccc1)[C@@H](O)C(=O)Nc1cccc(-c2noc(S)n2)c1
98.3 | 84.3 |  | CC(C)C[C@H](NC(=O)[C@@H](NC(=O)[C@@H](N)CCC(=O)O)C(C)C)C(=O)N[C@@H](Cc1ccccc1)[C@@H](O)C(=O)Nc1cc(C(=O)O)cc(C(=O)O)c1
 | 44.4 |  | CC(C)C[C@H](NC(=O)[C@@H](NC(=O)[C@@H](N)CCC(=O)O)C(C)C)C(=O)N[C@@H](Cc1ccccc1)[C@@H](O)C(=O)Nc1cccc(C(=O)O)c1
91.9 | 63.2 |  | CC(C)C[C@H](NC(=O)[C@@H](NC(=O)[C@@H](N)CCC(=O)O)C(C)C)C(=O)N[C@@H](Cc1ccccc1)[C@@H](O)C(=O)Nc1cccc(-c2nsc(=O)[nH]2)c1
94.4 | 66.3 |  | CC(C)C[C@H](NC(=O)[C@@H](NC(=O)[C@@H](N)CCC(=O)O)C(C)C)C(=O)N[C@@H](Cc1ccccc1)[C@@H](O)C(=O)Nc1cccc(-c2noc(=O)[nH]2)c1
62.1 |  |  | CC(C)C[C@H](NC(=O)[C@@H](NC(=O)[C@@H](N)CCC(=O)O)C(C)C)C(=O)N[C@@H](Cc1ccccc1)[C@@H](O)C(=O)Nc1cccc(C(N)=O)c1
29.2 |  |  | CC(C)C[C@H](NC(=O)[C@@H](NC(=O)[C@@H](N)CCC(=O)O)C(C)C)C(=O)N[C@@H](Cc1ccccc1)[C@@H](O)C(=O)Nc1cccc(C(=N)N)c1
97.3 | 78.1 |  | CC(C)C[C@H](NC(=O)[C@@H](NC(=O)[C@@H](N)CNC(=O)c1nn[nH]n1)C(C)C)C(=O)N[C@@H](Cc1ccccc1)[C@@H](O)C(=O)Nc1cccc(C(N)=O)c1
92.2 | 73.7 |  | CC(C)C[C@H](NC(=O)[C@@H](NC(=O)[C@@H](N)CCC(=O)O)C(C)C)C(=O)N[C@@H](Cc1ccccc1)[C@@H](O)C(=O)Nc1cccc(-c2nn[nH]n2)c1
94.5 | 68.4 |  | CC(C)C[C@H](NC(=O)[C@@H](NC(=O)[C@@H](N)CCC(=O)O)C(C)C)C(=O)N[C@@H](Cc1ccccc1)[C@@H](O)C(=O)Nc1cccc(-c2noc(=S)[nH]2)c1

SMILES | inhibition (Beta-secretase 1 [1]) [%] | inhibition (Beta-secretase 1 [2]) [%] | IC50 (Beta-secretase 1 [3]) [nM]
CC(C)C[C@H](NC(=O)[C@@H](NC(=O)[C@@H](N)CNC(=O)c1nnn[nH]1)C(C)C)C(=O)N[C@@H](Cc1ccccc1)[C@@H](O)C(=O)Nc1cc(-c2nnn[nH]2)cc(-c2nnn[nH]2)c1 |  |  | 1.2
CC(C)C[C@H](NC(=O)[C@@H](NC(=O)[C@@H](N)CNC(=O)c1nn[nH]n1)C(C)C)C(=O)N[C@@H](Cc1ccccc1)[C@@H](O)C(=O)Nc1cc(-c2nn[nH]n2)cc(-c2nn[nH]n2)c1 | 100 | 100 | 
CC(C)C[C@H](NC(=O)[C@@H](NC(=O)[C@@H](N)CNC(=O)c1nnn[nH]1)C(C)C)C(=O)N[C@@H](Cc1ccccc1)[C@@H](O)C(=O)Nc1cccc(-c2nnn[nH]2)c1 |  |  | 4.8
